Assay results from patent publication US5981556A, “1,3-diazolino and 1,3-diazolidino heterocycles as useful nitric oxide synthase inhibitors” (G.D. Searle & Co., priority 1997, dated 1999).
Where a name gives a salt, the structure may show the parent alone.

Assays:
[1] = tested on: endotoxin (LPS) induced rise in plasma nitrites; assay: In Vivo Assay: plasma nitrites after endotoxin (Low Dose LPS); design: species or system Rats; details: plasma nitrites 5 hours post-treatment
Protocol: Rats were treated with an intraperitoneal injection of 10 mg/kg of endotoxin (LPS) with or without oral administration of the nitric oxide synthase inhibitors.

hiNOS = hiNOS (Homo sapiens, UniProt P35228); assay: Citrulline Assay for Nitric Oxide Synthase, Human in vitro Enzyme Data, hiNOS; format: biochemical
hnaNOS = hnaNOS (Homo sapiens, UniProt P29475); assay: Citrulline Assay for Nitric Oxide Synthase, Human in vitro Enzyme Data, hnaNOS; format: biochemical
hecNOS = hecNOS (Homo sapiens, UniProt P29474); assay: Citrulline Assay for Nitric Oxide Synthase, Human in vitro Enzyme Data, hecNOS; format: biochemical

Structure (SMILES): Cc1noc(=O)n1CCCC[C@H](N)C(=O)O [Example 2, αS-amino-4,5-dihydro-3-methyl-5-oxo-1,2,4-oxadiazole-4-hexanoic acid, monohydrochloride]
- Low Dose LPS in vivo Effective Dose (i.v.), inh. ([1]; i.v., 3 mg/kg/day): 83%
- Low Dose LPS in vivo Effective Dose (p.o.), inh. ([1]; 3 mg/kg/day): 39%
- Low Dose LPS in vivo Effective Dose (p.o.), inh. ([1]; 10 mg/kg/day): 42%
- IC50 (hiNOS): 138 µM
- IC50 (hnaNOS): 159 µM
- IC50 (hecNOS): 1140 µM
